Experimental data: patent US8592648B2, “Seed treatment with combinations of pyrethrins/pyrethroids and thiamethoxam” (Monsanto Technology, LLC, priority 2000, dated 2013)

Assays:
[1] = tested on: corn plants (Pioneer hybrid PN3394); test: Vigor rating of corn plants before infestation (indication of phytotoxicity); type: in vivo; settings: rating 1=extremely low vigor, 10=highest
Protocol: (§1) A lambda-cyhalothrin seed treatment formulation was prepared by diluting the WARRIOR® T insecticide (Zeneca Ag Products, Wilmington, Del.), which contains 11.4% lambda-cyhalothrin as the active ingredient, into water as a carrier. This formulation was applied for one minute at room temperature to twenty-five grams of Pioneer corn seed (Cultivar PN3394) in a rotostatic seed treater at a rate of 125 g, 250 g or 500 g active ingredient (Al) to 100 kg seed. The treated seeds were allowed to sit uncapped for four to twenty-four hours before planting.
(§2) Treated and untreated seeds (Pioneer hybrid PN3394) were planted in a soil mix consisting of Dupo silt loam, 30% Perlite, 20% coarse sand (WB-10 grade) in six groups of tubs (20 in. L×15 in. W×8 in. D). Twelve seeds were planted per tub and three tubs were planted for each treatment regimen. Soil applications of FORCE® 3GR, which contains 3% tefluthrin granule as the active ingredient, were used for two sets of tubs containing untreated seeds. The FORCE 3GR was applied either in-furrow or incorporated into a 5 inch band on the soil surface at the time of planting. The tubs were overhead irrigated until the plants were infested with black cutworm larvae.
At twelve days after planting (DAP) but before infestation, the overall health of each plant was rated by looking at emergence, height and appearance. This vigor rating gives an indication of any phytotoxicity from the seed or soil treatment. A rating of 1 indicates extremely low vigor while 10 is the highest vigor rating.

black cutworm larvae = test: Black cutworm feeding damage on corn shoots and foliage, seed treatment vs soil granular treatment (Reference Example 1); type: in vivo; settings: for Plant Defol. 3 DAI / Plant Defol. 7 DAI / Plant Defol. 10 DAI: rating 1=no damage, 10=complete defoliation
Protocol: This example compares the efficacy of seed treatment with lambda-cyhalothrin (CAS #91465-08-6) to soil granular treatments with tefluthrin (CAS #79538-32-2) against feeding damage by black cutworm larvae on shoots and foliage.
as §1, §2
The rate of application for the FORCE 3GR was reported in units of grams of the active ingredient per hectare (g/ha), while the rate of application of the WARRIOR T to the seeds was reported in units of grams of the active ingredient per 100 kilograms of the seeds (g/100 kg). Although the conversion of one of these units to the other will vary somewhat according to the type of seed that is being used, the size and weight of the seed, and the density of planting that is used—among other things—an approximate conversion for corn seed can be carried out as follows. Assuming a seed application rate of lambda cyhalothrin of, for example, 125 g/100 kg of seed and a planting density of 15 lbs seed/ac, about 14.7 acres can be planted with 100 kg of the seed. This is an effective application rate of about 8.5 g of lambda cyhalthrin per acre. At 2.47 ac/ha, the seed treatment level of 125 g/100 kg is approximately equivalent to a surface banding treatment at about 21 g/ha.
The corn plants were infested at 12 DAP, which corresponds to late growth stage V1 by placing two black cutworm larvae at ¾ instar on the soil surface near the base of the plant. Plants were rated 3, 7 and 10 days after infestation (DAI) for the number of cut plants, as well as damage from leaf feeding. The percent stand reduction due to plant cutting was calculated by dividing the number of cut plants into the number of plants present at infestation. The foliar feeding injury was evaluated using a rating scale of 1=no damage and 10=complete defoliation.

Cc1c(F)c(F)c(COC(=O)[C@@H]2[C@H](/C=C(\Cl)C(F)(F)F)C2(C)C)c(F)c1F (racemic) [Tefluthrin, (2,3,5,6-tetrafluoro-4-methylphenyl)-methyl-(1 alpha, 3 alpha)-(Z)-(±)-3-(2-chloro-3,3,3-trifluoro-1-propenyl)-2,2-dimethylcyclopropanecarboxylate]
Vigor at 12 DAP ([1]; banded 30 g/ha (FORCE 3GR)): 8.7
Vigor at 12 DAP ([1]; in-furrow 30 g/ha (FORCE 3GR)): 9.0
% Stand Reduct'n 3 DAI (black cutworm larvae; banded 30 g/ha (FORCE 3GR)): 0.0%

CC1(C)[C@H](C(=O)O[C@H](C#N)c2cccc(Oc3ccccc3)c2)[C@@H]1/C=C(\Cl)C(F)(F)F [λ-cyhalothrin, [1 alpha(s), 3 alpha(z)]-cyano(3-phenoxyphenyl) methyl-3-(2-chloro-3,3,3-trifluoro-1-propenyl)-2,2-dimethylcyclopropane carboxylate]
Vigor at 12 DAP ([1]; seed treatment 125 g/100 kg): 9.0
Vigor at 12 DAP ([1]; seed treatment 250 g/100 kg): 8.3
Vigor at 12 DAP ([1]; seed treatment 500 g/100 kg): 8.3
Plant Defol. 3 DAI (black cutworm larvae; seed treatment 125 g/100 kg): 4.3
Plant Defol. 7 DAI (black cutworm larvae; seed treatment 125 g/100 kg): 5.0
Plant Defol. 10 DAI (black cutworm larvae; seed treatment 125 g/100 kg): 3.3
% Stand Reduct'n 3 DAI (black cutworm larvae; seed treatment 250 g/100 kg): 3.0%
Plant Defol. 3 DAI (black cutworm larvae; seed treatment 250 g/100 kg): 3.7
% Stand Reduct'n 7 DAI (black cutworm larvae; seed treatment 250 g/100 kg): 3.0%
% Stand Reduct'n 7 DAI (black cutworm larvae; seed treatment 250 g/100 kg, listed as lambda-cyhalothrin): 3%
Plant Defol. 7 DAI (black cutworm larvae; seed treatment 250 g/100 kg): 2.7
% Stand Reduct'n 10 DAI (black cutworm larvae; seed treatment 250 g/100 kg): 3.0%
Plant Defol. 10 DAI (black cutworm larvae; seed treatment 250 g/100 kg): 1.7
% Stand Reduct'n 3 DAI (black cutworm larvae; seed treatment 500 g/100 kg): 0.0%
Plant Defol. 3 DAI (black cutworm larvae; seed treatment 500 g/100 kg): 2.0
% Stand Reduct'n 7 DAI (black cutworm larvae; seed treatment 500 g/100 kg): 0.0%
% Stand Reduct'n 7 DAI (black cutworm larvae; seed treatment 500 g/100 kg, listed as lambda-cyhalothrin): 0%
Plant Defol. 7 DAI (black cutworm larvae; seed treatment 500 g/100 kg): 2.3
% Stand Reduct'n 10 DAI (black cutworm larvae; seed treatment 500 g/100 kg): 0.0%
Plant Defol. 10 DAI (black cutworm larvae; seed treatment 500 g/100 kg): 1.0
protection of corn plants against shoot/foliar feeding damage by black cutworm (black cutworm larvae; seed treatment prior to planting): significant protection
